From ChEMBL document CHEMBL1125994, “Synthesis of 9-[2,2-bis(hydroxymethyl)cycloprop-1-yl]guanine as a potential antiviral agent” (Bioorg Med Chem Lett, 1991)
Calls of active or inactive are those of the source.

What was measured:
Type in all cases: functional, cell-based
MRC5 [1] = assay: Compound was tested for antiviral activity against CMV (cytomegalovirus) (AD169) at a concentration of 100 ug/mL in MRC-5 (human fibroblast) cells; IA denotes inactive
MRC5 [2] = assay: Compound was tested for antiviral activity against HSV-1 (SC16 strain)at a concentration of 100 ug/mL in MRC-5 (human fibroblast) cells; IA denotes inactive
MRC5 [3] = assay: Compound was tested for antiviral activity against HSV-2 (MS) strain at a concentration of 100 ug/mL in MRC-5 (human fibroblast) cells; IA denotes inactive
MRC5 [4] = assay: Compound was tested for antiviral activity against VZV (Ellen) strain at a concentration of 100 ug/mL in MRC-5 (human fibroblast) cells; IA denotes inactive

Measured: Antiviral activity

Nc1nc(O)c2ncn(C3CC3(CO)CO)c2n1 (centres undefined)
inactive: all assays above
